According to patent US20200157135A1, “SIDE-CHAIN MODIFIED ERGOSTEROL AND STIGMASTEROL DERIVATIVES AS LIVER X RECEPTOR MODULATORS” (Ospedale San Raffaele srl, priority 2017, published 2020):
“Also recorded” adds a separate entry of the source. Where two headings read alike, the source gives them in different places.

Legend:
SCD1 = experiment: qPCR of SCD1 expression in PMA-differentiated U937 cells; type: cell-based, human; details: U937 differentiated with PMA 72 h; 10 μM, 6 hours
Procedure: (§1) U937 cells differentiated with PMA for 72 hours were treated with T0901317 (10 μM), 22R—HC (3) or with the tested compound (10 μM). […] (n=3/group). *p<0.05, **p<0.01, ***p<0.001.
(§2) LXR agonists induce the expression of target genes, which are involved in cholesterol homeostasis, particularly in the reverse cholesterol transport pathway.43 Indeed, LXR agonists induce the expression of ABCA1 both in macrophages and in many tissues of the periphery such as the intestine.44 Moreover, ABCA1 regulates cholesterol efflux to APOAI acceptors.45 In the liver, LXR activation promotes the biosynthesis of fatty acids, a process also termed as de novo lipogenesis by inducing the expression of the master regulator of hepatic lipogenesis sterol-regulatory element-binding protein 1C (SREBP-1c), as well as several downstream genes in the SREBP-1c pathway, including steroyl CoA desaturase 1 (SCD1) and fatty acid synthase (FASN).43 Therefore, it was investigated, by quantitative PCR (qPCR), the expression of ABCA1, SREBP1c, FASN, and SCD1, by using RNA from monocytic U937 cells (FIG. 3) and from hepatic HepG2 cells (FIG. 4) stimulated with our compounds, the non-steroidal agonist T0901317 or the endogenous ligand 22R—HC (3) as positive controls. […] Then, the induction of genes involved in the lipogenesis using the hepatic cell line HepG2. 43,22 was evaluated. […] Over the time, indeed, substantial efforts have been dedicated to the identification of LXR ligands able to turning on ABC transporter genes, without affecting lipogenic genes levels. This task is still one of the major challenge to the discovery of a clinically useful LXR modulator for atherosclerosis.
(§3) Quantitative Real-Time-PCR. U937 cell line was differentiated in foam macrophages with phorbol 12-myristate 13-acetate (PMA) 10 ng/ml (Sigma) for 72 hours at 37° C. in […] at the concentration of 3×10^6 cells in 10 ml RPMI 10% FBS. At day 3 nuclear receptor ligands were added for 6 hours. HepG2 cells were treated with the ligands as described by Quinet et al.22 Total RNA was purified by TRIZOL (Invitrogen, Carlsbad, Calif., USA). Reverse transcription was performed incubating 2 μg of total RNA 1 hour at 42° C. with MLV-reverse transcriptase (Promega). Quantitative PCR was performed using Sybr Green Master Mix (Applied Biosystems) and real-time PCR (Viia 7 Real Time PCR System, Applied Biosystems). All PCR reactions were done in triplicate. The comparative Ct method was used to quantify transcripts that were normalized for human GAPDH. the following primer pairs were used: […]

hLXRα = target: T1, hLXRα (Homo sapiens, UniProt Q13133); experiment: luciferase assay with GAL-4 chimeric hLXRα receptor in human embryonic kidney 293 cells; type: cell-based; details: for EC50: GAL4-hLXRα luciferase, HEK293, dose-response 32-1 μM, mean of three-five independent experiments, read-out: LXRα EC50 (μM) ± SD; for Emax: HEK293, 24 h, read-out: LXRα Efficacy (%) ± SD; for LXR isoform selectivity profile: LXRα versus LXRβ, GAL4 luciferase assays
T1 sequence (Q13133 209-447 limits assumed): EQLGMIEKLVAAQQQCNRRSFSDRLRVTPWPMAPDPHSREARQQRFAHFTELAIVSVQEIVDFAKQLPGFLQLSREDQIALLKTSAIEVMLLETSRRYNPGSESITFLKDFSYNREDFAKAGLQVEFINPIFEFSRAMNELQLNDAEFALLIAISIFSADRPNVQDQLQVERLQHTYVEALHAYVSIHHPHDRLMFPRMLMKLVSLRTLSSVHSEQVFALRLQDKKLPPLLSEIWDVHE
Procedure: (§4) All the synthesized compounds were first tested for their ability to activate LXRs by using luciferase assays with GAL-4 chimeric receptors. These were performed by co-transfecting plasmids encoding hLXRα- and β-binding domains fused to GAL-4, with the respective responsive element conjugated with the luciferase reporter gene into the human embryonic kidney 293 cells.
(§5) Cell Culture and Co-transfection Assays. Human embryonic Kidney 293 cells (American Type Culture Collection) were cultured in Dulbecco's Modified Eagle's medium containing 10% of fetal bovine serum at 37° C. in humidified atmosphere of 5% CO2. HEK293 cells (4×10^4 cells per well) were transiently transfected in 48 well plate with the reporter plasmids pMH100X4-TK-luc (100 ng/well), Renilla (22 ng/well) together with 100 ng/well of pCMX-Gal4-RXR, pCMX-Gal4-PPAR-γ, pCMX-Gal4-PXR, pFA-CMV-FXR pCMX-Gal4-LXR-α or pCMX-Gal4-LXR-β plasmids using X-tremeGENE 9 DNA Transfection Reagent (Roche). Six hours after transfection, the cells were treated with the appropriate compound for 24 hours. Luciferase activities were analyzed by luciferase Dual Reporter Assay Systems (Promega) according to the manufacturer's protocol. GAL4-LXRs, GAL4-PPAR-γ, GAL4-RXR and TK-MHC100-luc plasmids were described in Villablanca et al.49 GAL4-PXR was a kind gift of Dr. Enrique Sainz (The Scripps Research Institute, La Jolla, USA). GAL4-FXR was a kind gift of Dr. Daniel Merk (Goethe-University Frankfurt am Main). The results obtained by luciferase assays and reported in Table 1 are from three to five independent experiments.
(§6) Statistical analysis. Data are expressed as mean±SEM and were analyzed for significance by ANOVA with Dunnet's multiple comparison tests. The analysis was performed with Prism software. Data in Table 1 are expressed as EC50±SD. In particular, the standard deviations were obtained by calculating the mean of the EC50 of each experiment (three to five independent experiments). The efficacy (%) of the compounds was calculated as the percentage of the compound effect, in terms of LXRα or β activation, versus 8 μM of 22R—HC±SD. The analyses were performed with Prism software.

[1] = system: murine Lewis lung carcinoma cells (LLC); experiment: growth of LLC tumor cells in vitro; type: cell-based; details: 96 hours, 10 μM
Excerpt: (§7) We have performed a set of experiments to evaluate whether some LXR modulators, particularly PFM009 (13) and PFM018 (25) influence the growth of the murine Lewis lung carcinoma cells (LLC) in vitro and in vivo.

TNFα = experiment: qPCR of TNFα expression in differentiated U937 cells treated with LPS; type: cell-based, human; details: differentiated U937, 6 hours, 10 μM in combination with LPS (100 ng/ml)
Procedure: (§8) U937 cells differentiated with PMA for 72 hours were treated with LPS (100 ng/ml) in combination with T0901317 (10 μM) or with the title compounds (10 μM). […] (n=3/group). *p<0.05, **p<0.01, ***p<0.001.
as §3

SREBP1c [2] = experiment: qPCR of SREBP1c expression in PMA-differentiated U937 cells; type: cell-based, human; details: U937 differentiated with PMA 72 h; 10 μM, 6 hours
Procedure: as §1, §2, §3

ABCA1 [3] = experiment: qPCR of ABCA1 expression in PMA-differentiated U937 cells; type: cell-based, human; details: U937 differentiated with PMA 72 h; 10 μM, 6 hours
Procedure: as §1, §2, §3

LLC tumor = LLC tumor growth in vivo in C57BL/6 mice; details: 1×10^6 LLC cells subcutaneously, 30 mg/Kg/day for five consecutive days from day six
Procedure: Then, we tested whether these compounds could influence LLC tumor growth in vivo. To do that, C57BL/6 mice were challenged with 1×10^6 LLC tumor cells subcutaneously. Six days later, tumor-bearing mice were treated with PFM009 or PFM018 (30 mg/Kg/day) for five consecutive days and then evaluated for tumor growth.

hLXRβ = target: T2, hLXRβ (Homo sapiens, UniProt P55055); experiment: luciferase assay with GAL-4 chimeric hLXRβ receptor in human embryonic kidney 293 cells; type: cell-based; details: for EC50: GAL4-hLXRβ luciferase, HEK293, dose-response 32-1 μM, mean of three-five independent experiments, read-out: LXRβ EC50 (μM) ± SD; for Emax: HEK293, 24 h
T2 sequence (P55055 222-460 limits assumed): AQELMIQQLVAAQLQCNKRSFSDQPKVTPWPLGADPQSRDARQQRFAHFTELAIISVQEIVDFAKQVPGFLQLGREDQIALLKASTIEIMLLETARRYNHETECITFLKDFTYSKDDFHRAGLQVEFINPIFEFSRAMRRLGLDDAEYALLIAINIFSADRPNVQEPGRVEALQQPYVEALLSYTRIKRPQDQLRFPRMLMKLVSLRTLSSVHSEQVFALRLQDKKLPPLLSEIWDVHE
Procedure: as §4, §5, §6

Abca1 [4] = experiment: qPCR of LXR target gene Abca1 in LLC tumor cells; type: cell-based, murine
Excerpt: as §7

SREBP1c [5] = experiment: qPCR of SREBP1c expression in HepG2 cells; type: cell-based, human; details: 10 μM
Procedure: HepG2 cells were treated with T0901317 (10 μM), 22R—HC (3) (10 μM) or with the tested compound (10 μM). […] (n=3/group). *p<0.05, **p<0.01, ***p<0.001.
LXR agonists induce the expression of target genes, which are involved in cholesterol homeostasis, particularly in the reverse cholesterol transport pathway.43 Indeed, LXR agonists induce the expression of ABCA1 both in macrophages and in many tissues of the periphery such as the intestine.44 Moreover, ABCA1 regulates cholesterol efflux to APOAI acceptors.45 In the liver, LXR activation promotes the biosynthesis of fatty acids, a process also termed as de novo lipogenesis by inducing the expression of the master regulator of hepatic lipogenesis sterol-regulatory element-binding protein 1C (SREBP-1c), as well as several downstream genes in the SREBP-1c pathway, including steroyl CoA desaturase 1 (SCD1) and fatty acid synthase (FASN).43 Therefore, it was investigated, by quantitative PCR (qPCR), the expression of ABCA1, SREBP1c, FASN, and SCD1, by using RNA from monocytic U937 cells (FIG. 3) and from hepatic HepG2 cells (FIG. 4) stimulated with our compounds, the non-steroidal agonist T0901317 or the endogenous ligand 22R—HC (3) as positive controls. […] 43,22 was evaluated. […]
Quantitative Real-Time-PCR. […] The comparative Ct method was used to quantify transcripts that were normalized for human GAPDH. the following primer pairs were used: […]

MCP-1/CCL2 = experiment: qPCR of CCL2 expression in differentiated U937 cells treated with LPS; type: cell-based, human; details: differentiated U937, 6 hours, 10 μM in combination with LPS (100 ng/ml)
Procedure: as §8, §3

[6] = % of compound effect versus 8 μM of 22R-HC
[7] = read-out: LXRβ Efficacy (%) ± SD, % of compound effect versus 8 μM of 22R-HC

| SMILES | SCD1 expression (SCD1) | LXRα Efficacy (%) ± SD (hLXRα; [6]) | EC50 (hLXRα) | Emax (hLXRα) | LXR isoform selectivity profile (hLXRα) | LLC tumor growth in vitro [1] | inhibition of TNFα expression (TNFα) | SREBP-1c up-regulation (SREBP1c [2]) | ABCA1 expression (ABCA1 [3]) | LLC tumor growth in vivo (LLC tumor) | EC50 (hLXRβ) | Emax (hLXRβ; [7]) | beta/alfa efficacy ratio (hLXRβ; LXRβ efficacy over LXRα efficacy) | expression of the LXR target gene Abca1 (Abca1 [4]) | SREBP-1c up-regulation (SREBP1c [5]) | melting point | inhibition of CCL2 expression (MCP-1/CCL2) | Emax (hLXRα; [6]) | Emax (hLXRβ; % of compound effect versus 8 μM of 22R-HC, read-out: LXRβ Efficacy (%) ± SD) |
| --- | --- | --- | --- | --- | --- | --- | --- | --- | --- | --- | --- | --- | --- | --- | --- | --- | --- | --- | --- |
| CC[C@H](C(=O)C[C@@H](C)[C@H]1CC[C@H]2[C@@H]3CC=C4C[C@@H](O)CC[C@]4(C)[C@H]3CC[C@]12C)C(C)C [Compound 25, 3β-Hydroxystigmast-5-ene-23-one] | poor activators of SREBP1c and SCD1 | lowest efficacy at LXRα | 14.5 µM | 12.4 ± 4.2% | good selectivity for the LXRβ isoform in terms of EC50; also recorded: LXRβ-selective agonist; also recorded: selective LXRβ agonist | not able to alter LLC tumor growth in vitro | the most active | poor activators of SREBP1c and SCD1 | strong induction of ABCA1 expression | significant control of LLC tumor growth | 6.02 ± 1.2 µM | ~50% | 3.7 | induced the expression of the LXR target gene Abca1 | – | – | – | – | – |
| CC[C@@H](C(C)C)[C@H]1O[C@@H]1[C@@H](C)[C@H]1CC[C@H]2[C@@H]3CC=C4C[C@@H](O)CC[C@]4(C)[C@H]3CC[C@]12C [Compound 13, (22R,23R)-22,23-Epoxystigmast-5-ene-3β-ol] | poor activators of SREBP1c and SCD1 | – | 2.09 ± 0.57 µM | 489 ± 89.1% | non-selective and poorly preferential LXRα agonists; also recorded: non-selective ligands; also recorded: non-selective LXR agonists | not able to alter LLC tumor growth in vitro | the most active | poor activators of SREBP1c and SCD1 | strong induction of ABCA1 expression | significant control of LLC tumor growth | 3.79 ± 0.82 µM | 142 ± 16.8% | – | induced the expression of the LXR target gene Abca1 | significant up-regulation of SREBP-1c | – | – | – | – |
| CC(C)[C@@H](C)C[C@@H](O)[C@@H](C)[C@H]1CC[C@H]2C3=CC=C4C[C@@H](O)CC[C@]4(C)[C@H]3CC[C@]12C | – | – | – | – | – | – | – | – | – | – | – | – | – | – | – | 117.3 to 121 °C | – | – | – |
| CC(C)[C@@H](C)[C@@H]1O[C@H]1[C@@H](C)[C@H]1CC[C@H]2C3=CC=C4C[C@@H](O)CC[C@]4(C)[C@H]3CC[C@]12C [Compound 16, (22S,23S)-22,23-Epoxyergosta-5,7-diene-3β-ol] | – | – | 1.5 ± 0.12 µM | – | non-selective and poorly preferential LXRα agonists | – | – | – | – | – | 1.96 ± 0.05 µM | – | – | – | significant up-regulation of SREBP-1c | – | same grade of potency of the positive control T0901317 | 51.7 ± 3.8% | 48.5 ± 13% |
